Source: US20080207928A1 (priority 2005, published 2008)
Read-outs that look alike come from different tables or passages of the source.

Tests used:
human recombinant CB1 = biological target: T1, human recombinant CB1 (Homo sapiens, UniProt P21554); assay: CB1R radioligand binding, membranes from HEK293 cells over-expressing human recombinant CB1
T1 construct: purchased Perkin-Elmer; host or cells: HEK293
Protocol: (§1) Flavonoid compounds of general formula (I) above were evaluated for their ability to activate Cannabinoid Receptor 1 (CBLR) and Cannabinoid Receptor 2 (CB2R).
CB1R experiments were performed using membranes from HEK293 cells over-expressing human recombinant CB1, as described by the manufacturer (Perkin-Elmer) and using [3H]CP-55,490 as the radioligand.
(§2) Data of active compounds are expressed in Ki (mM) and are means±SEM of n=3 determinations.
(§3) The values that are stated for each of the compounds is an EC50 value. This is defined as the molar concentration of an agonist, which produces 50% of the maximum possible response for that agonist. The values documented are in micromolar units.

human recombinant CB2 = biological target: T2, human recombinant CB2 (Homo sapiens, UniProt P34972); assay: CB2R radioligand binding, membranes from HEK293 cells over-expressing human recombinant CB2
T2 construct: purchased Perkin-Elmer; host or cells: HEK293
Protocol: as §1
CB2R experiments were performed using membranes from HEK293 cells over-expressing human recombinant CB2, as described by the manufacturer (Perkin-Elmer), and using [3H]CP-55,495 as the radioligand.
as §2, §3

T2 sequence (P34972 whole entry): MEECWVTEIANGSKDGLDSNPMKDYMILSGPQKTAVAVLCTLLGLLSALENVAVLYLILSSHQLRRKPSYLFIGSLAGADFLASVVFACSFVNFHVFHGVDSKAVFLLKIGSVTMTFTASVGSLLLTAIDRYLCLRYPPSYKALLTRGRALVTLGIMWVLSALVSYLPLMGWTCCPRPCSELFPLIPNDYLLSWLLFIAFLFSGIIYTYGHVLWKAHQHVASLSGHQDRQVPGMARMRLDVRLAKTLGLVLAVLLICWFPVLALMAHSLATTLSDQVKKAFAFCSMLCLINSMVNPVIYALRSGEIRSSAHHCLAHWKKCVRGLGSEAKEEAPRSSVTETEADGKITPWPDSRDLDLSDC
T1 sequence (P21554 whole entry): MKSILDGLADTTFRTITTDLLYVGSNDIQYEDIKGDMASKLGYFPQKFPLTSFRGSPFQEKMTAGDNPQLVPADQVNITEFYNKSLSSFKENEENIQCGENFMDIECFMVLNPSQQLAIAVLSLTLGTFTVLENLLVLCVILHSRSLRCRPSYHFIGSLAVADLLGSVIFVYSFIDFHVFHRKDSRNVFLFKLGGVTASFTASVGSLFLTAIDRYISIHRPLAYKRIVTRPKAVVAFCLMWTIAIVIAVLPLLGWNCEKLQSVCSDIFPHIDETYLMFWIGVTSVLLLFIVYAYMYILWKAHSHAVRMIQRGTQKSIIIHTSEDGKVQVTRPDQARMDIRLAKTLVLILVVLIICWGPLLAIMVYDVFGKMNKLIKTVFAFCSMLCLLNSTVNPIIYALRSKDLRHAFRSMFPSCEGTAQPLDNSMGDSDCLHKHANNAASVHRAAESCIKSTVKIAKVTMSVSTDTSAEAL

EC50 (human recombinant CB1; HEK293 membranes, [3H]CP-55,490 radioligand, means of n=3, read-out: CB1R Activity) [µM]	EC50 (human recombinant CB2; HEK293 membranes, [3H]CP-55,495 radioligand, means of n=3, read-out: CB2R Activity) [µM]	Compound	EC50 (human recombinant CB1) [µM]	EC50 (human recombinant CB2) [µM]	activation of Cannabinoid Receptor 1 (statement in words) (human recombinant CB1)	activation of Cannabinoid Receptor 2 (statement in words) (human recombinant CB2)
		COc1cc(O)c2c(c1)O[C@H](c1ccc(O)cc1)CC2=O [Example 5, 5,4′-dihydroxy-7-methoxyflavanone]	3.8	> 25		
		COc1cc(O)c2c(c1)O[C@H](c1ccccc1)CC2=O [Example 4, 5-hydroxy-7-methoxyflavanone]	0.8	9.1	can activate both	can activate both
> 25	15.5	O=C1C[C@@H](c2ccccc2)Oc2cc(O)cc(O)c21 [Example 3, 5,7-dihydroxyflavanone]				
		CC(C)=CCc1c(O)cc(O)c2c1O[C@H](c1ccc(O)cc1)CC2=O [Example 2, 4′,5,7-trihydroxy-8-prenylflavanone]	4.6	> 25		
		COc1cc(O)c(CC=C(C)C)c2c1C(=O)C[C@@H](c1ccc(O)cc1)O2 [Example 1, 4′, 7-dihydroxy-5-methoxy-8-prenylflavanone]	7.5	> 25		
